Measurements as given in patent US10662194B2, “Substituted 6-anilino-9-heterocyclylpurine derivatives for inhibition of plant stress” (UNIVERZITA PALACKEHO V OLOMOUCI, priority 2014, dated 2020).
Marks after values point to notes of the source that are not given here.

Experiments:
[1] = tested on: wild-type Arabidopsis plants; experiment: In vitro root growth of wild-type Arabidopsis plants; type: in vivo; details: 0.1 μM in MS medium, FIG. 6
Description: As shown in previous example presence of compound 12 in the growth medium has positive effect on the root growth of cytokinin-deficient Arabidopsis plants. This effect was further studied using wild-type Arabidopsis plants and compared with biologically and structurally relevant compounds, a cytokinin BAP and a CKX inhibitor INCYDE. […] Arabidopsis seedlings were grown in vitro on a standard MS medium containing 0.1 μM cytokinin BAP, the same concentration of compound 12 and the same concentration of CKX inhibitor INCYDE (2-chloro-6-(3-methoxyanilino)purine).

recombinant AtCKX2 = biological target: T1, recombinant AtCKX2 (Arabidopsis thaliana, UniProt Q9FUJ3); experiment: Inhibition of cytokinin oxidase/dehydrogenase activity (PMS/MTT microtitre assay); type: biochemical
T1 construct: made in house; host or cells: S. cerevisiae strain 23344c ura-
T1 sequence (Q9FUJ3 23-501): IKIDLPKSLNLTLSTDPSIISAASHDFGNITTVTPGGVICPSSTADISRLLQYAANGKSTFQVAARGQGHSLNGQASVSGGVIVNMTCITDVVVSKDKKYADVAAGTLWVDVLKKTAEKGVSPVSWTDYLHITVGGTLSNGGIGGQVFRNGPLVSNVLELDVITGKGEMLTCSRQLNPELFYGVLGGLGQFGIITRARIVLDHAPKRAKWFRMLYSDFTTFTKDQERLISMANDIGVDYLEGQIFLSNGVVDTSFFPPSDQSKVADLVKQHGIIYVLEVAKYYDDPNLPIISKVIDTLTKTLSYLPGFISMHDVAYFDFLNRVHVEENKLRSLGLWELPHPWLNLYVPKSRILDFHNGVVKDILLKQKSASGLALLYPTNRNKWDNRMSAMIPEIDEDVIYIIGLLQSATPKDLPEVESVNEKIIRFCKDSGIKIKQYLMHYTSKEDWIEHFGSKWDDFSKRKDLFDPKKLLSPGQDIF
Description: IC50 measurements were done using the assay in microtitre plate. Each well contained 100 μL of PMS/MTT [phenazine methosulfate/3-(4,5-dimethylthiazol-2-yl)-2,5-diphenyltetrazolium bromide] reaction mixture (final concentrations: 0.1 M KH2PO4, pH 7.4, 1 mM MTT, 0.2 mM PMS) containing the tested compound (3×10^−7 M-3×10^−4 M) and 30 μM N^6-isopentenyladenine (iP) as a substrate. 100 μL of cell-free growth medium of S. cerevisiae strain 23344c ura^− harboring the plasmid pYES2-AtCKX2 was directly used as a source of AtCKX2. Plates were incubated in the dark for 30 min at 37° C. and the enzymatic reaction was stopped by 25 μL of 35% acetic acid. The absorbance at 578 nm was measured using spectrophotometer Tecan. Absorbance of the sample without iP was subtracted.
The IC50 value, the compound concentration that inhibits the enzyme activity to 50%, was calculated from the obtained dose response curves. The values shown in Table 7 are means of three replicates and the entire test was repeated at least twice. […] Compound 12 is an effective inhibitor of AtCKX2 activity, app. 3-times stronger that thidiazuron and only app. 3-times weaker than the structurally related compound INCYDE (2-chloro-6-(3-methoxyanilino)purine).

[2] = tested on: winter wheat variety Diadem; experiment: Seed coating, tillering of winter wheat (field experiment); type: in vivo; details: for Number of medium tillers (% of control) / Number of productive tillers (% of control) / Number of weak tillers (% of control): Olomouc, 2012
Description: To evaluate the effect of seed coating with compound 12 on morphological yield forming traits of winter wheat field plot experiment was performed in year 2012 on locality Olomouc, Czech Republic. Seeds of winter weat bakery variety Diadem (Selgen) were coated with 10 and 50 μM concentration of compound 12 mixed into seed treatment agent Cruiser 350FS (Syngenta; 10 L of solution per 1000 kg of seeds), seeds coated with only Cruiser 350FS were used for control variant. The seeds were dried and then sown in the sowing rate 3.500.000 seeds per hectare in 4 replications per each variant in randomized positions (each replication was 10 square meter plot). The plants were analyzed for number of productive tillers, medium tillers and weak tillers.

COc1cccc(Nc2nc(Cl)nc3c2ncn3C2CCCCO2)c1 (centres unmarked) [compound 12, 2-chloro-6-(3-methoxyanilino)-9-(tetrahydropyran-2-yl)purine]
root growth [1]: positive effect on the root length and lateral branching
AtCKX2 inhibition, times stronger than thidiazuron (recombinant AtCKX2): ~3 times
AtCKX2 inhibition, times weaker than INCYDE (recombinant AtCKX2): ~3 times
IC50 (recombinant AtCKX2; 30 μM iP substrate, 30 min, 37° C., read-out: IC50): 19.5 µM
Number of medium tillers (% of control) ([2]; 10 μM): 75.0* % of control
Number of productive tillers (% of control) ([2]; 10 μM): 106.5 % of control
Number of weak tillers (% of control) ([2]; 10 μM): 102.2 % of control
Number of medium tillers (% of control) ([2]; 50 μM): 78.1* % of control
Number of productive tillers (% of control) ([2]; 50 μM): 124.2** % of control
Number of weak tillers (% of control) ([2]; 50 μM): 80.4 % of control
number of productive tillers compared to untreated control ([2]; 10 and 50 μM): 106-124%
